From patent US10023555B2, “NSAIDs derivatives and uses thereof” (Research Foundation of The City University of New York, priority 2013, dated 2018)
Read-outs that look alike come from different tables or passages of the source.

Assays:
Assay type in all cases: cell-based
[1] = tested on: BxPC-3 human pancreatic cancer cells; assay: MTT cell growth inhibition, BxPC3; details: for IC50: Homo sapiens, read-out: IC50 for cell growth inhibition; for Enhanced Potency: ratio of IC50 NSAID/POSH-NSAID, fold-enhancement over parent, BxPC3
[2] = tested on: SW-480 human colon adenocarcinoma cells; assay: MTT cell growth inhibition, SW480; details: for IC50: Homo sapiens, read-out: IC50 for cell growth inhibition; for Enhanced Potency: ratio of IC50 NSAID/POSH-NSAID, fold-enhancement over parent, SW480
[3] = tested on: A549 human lung cancer cells; assay: MTT cell growth inhibition, A549; details: for IC50: Homo sapiens, read-out: IC50 for cell growth inhibition; for Enhanced Potency: ratio of IC50 NSAID/POSH-NSAID, fold-enhancement over parent, A549
[4] = tested on: HCT-15 human colon adenocarcinoma cells; assay: MTT cell growth inhibition, HCT 15; details: for IC50: Homo sapiens, read-out: IC50 for cell growth inhibition; for Enhanced Potency: ratio of IC50 NSAID/POSH-NSAID, fold-enhancement over parent, HCT 15
[5] = tested on: MIA PaCa-2 human pancreatic cancer cells; assay: MTT cell growth inhibition, MIAPaCa2; details: for IC50: Homo sapiens, read-out: IC50 for cell growth inhibition; for Enhanced Potency: ratio of IC50 NSAID/POSH-NSAID, fold-enhancement over parent, MIAPaCa2
[6] = tested on: HT-29 human colon adenocarcinoma cells; assay: MTT cell growth inhibition, HT-29; details: for IC50: Homo sapiens, read-out: IC50 for cell growth inhibition; for Enhanced Potency: ratio of IC50 NSAID/POSH-NSAID, fold-enhancement over parent, HT-29
[7] = tested on: LNCAP human prostate cancer cells; assay: MTT cell growth inhibition, LNCAP; details: 24 h; for IC50: Homo sapiens, read-out: IC50 for cell growth inhibition; for Enhanced Potency: ratio of IC50 NSAID/POSH-NSAID, fold-enhancement over parent, LNCAP
[8] = tested on: Jurkats human leukemia cells; assay: MTT cell growth inhibition, Jurkat; details: 24 h; for IC50: Homo sapiens, read-out: IC50 for cell growth inhibition; for Enhanced Potency: ratio of IC50 NSAID/POSH-NSAID, fold-enhancement over parent
[9] = BXPC-3, 24 h, Pancreas BxPC3, mean ± SEM of three determinations
[10] = 24 h, Lung A549, mean ± SEM of three determinations
[11] = MIA PaCa-2, 24 h, Pancreas MIAPaCa2, mean ± SEM of three determinations
[12] = Prostate LNCAP, mean ± SEM of three determinations
[13] = Leukemia Jurkat, mean ± SEM of three determinations

Q: How did the IC50 [1, 9] turn out when `CC(=O)Oc1ccccc1C(=O)O` [ASA, aspirin, reference compound] was run?
A: > 5000 µM

Q: What about the IC50 ([2]; 24 h, Colon SW480, mean ± SEM of three determinations) of the same molecule?
A: > 5000 µM

Q: And the IC50 [3, 10]?
A: > 5000 µM

Q: What about the IC50 ([4]; 24 h, Colon HCT 15, mean ± SEM of three determinations) of the same molecule?
A: > 5000 µM

Q: What about the IC50 [5, 11] of the same molecule?
A: > 5000 µM

Q: What about the IC50 ([6]; 24 h, Colon HT-29, mean ± SEM of three determinations) of the same molecule?
A: > 5000 µM

Q: And the IC50 [7, 12]?
A: > 5000 µM

Q: And the IC50 [8, 13]?
A: > 5000 µM

Q: Which results are given for `COc1ccc2cc([C@H](C)C(=O)O)ccc2c1` [NAP, naproxen, reference compound]?
A: IC50 [1, 9]: 2600 µM; IC50 [3, 10]: 2650 µM; IC50 [5, 11]: 3200 µM; IC50 [7, 12]: 2990 µM; IC50 [8, 13]: 2380 µM

Q: With `CCOP(=O)(OCC)OCCSSCCOC(=O)c1ccccc1OC(C)=O` [POSH-ASA] as the molecule, how does the IC50 ([1]; BXPC-3, 24 h) read?
A: 0.075 µM

Q: What about the “Enhanced Potency” value ([1]; 24 h) of the same molecule?
A: >65,000

Q: What about the IC50 ([2]; SW480, 24 h) of the same molecule?
A: 0.092 µM

Q: What about the “Enhanced Potency” value ([2]; 24 h) of the same molecule?
A: >50,000

Q: What about the IC50 ([3]; A549, 24 h) of the same molecule?
A: 0.083 µM

Q: And the “Enhanced Potency” value ([3]; 24 h)?
A: >60,000

Q: What about the IC50 ([4]; HCT-15, 24 h) of the same molecule?
A: 0.075 µM

Q: What about the “Enhanced Potency” value ([4]; 24 h) of the same molecule?
A: >65,000

Q: And the IC50 ([5]; MIA PaCa-2, 24 h)?
A: 0.082 µM

Q: And the “Enhanced Potency” value ([5]; 24 h)?
A: >60,000

Q: What about the IC50 ([6]; HT-29, 24 h) of the same molecule?
A: 0.082 µM

Q: What about the “Enhanced Potency” value ([6]; 24 h) of the same molecule?
A: >60,000

Q: What about the IC50 ([7]; LNCaP) of the same molecule?
A: 0.075 µM

Q: And the “Enhanced Potency” value [7]?
A: >65,000

Q: What about the IC50 ([8]; Jurkat) of the same molecule?
A: 0.22 µM

Q: What about the “Enhanced Potency” value ([8]; Jurkat) of the same molecule?
A: >20,000

Q: What does the source list for `CCOP(=O)(OCC)OCCSSCCOC(=O)C(C)c1ccc2cc(OC)ccc2c1` (stereo not drawn) [POSH-NAP]?
A: IC50 ([1]; BXPC-3, 24 h): 0.1 µM; Enhanced Potency ([1]; 24 h): ~26,000; IC50 ([2]; SW480, 24 h): 0.18 µM; Enhanced Potency ([2]; 24 h): ~17,000; IC50 ([3]; A549, 24 h): 0.16 µM; Enhanced Potency ([3]; 24 h): ~16,000; IC50 ([4]; HCT-15, 24 h): 0.12 µM; Enhanced Potency ([4]; 24 h): ~24,000; IC50 ([5]; MIA PaCa-2, 24 h): 0.088 µM; Enhanced Potency ([5]; 24 h): ~36,000; IC50 ([6]; HT-29, 24 h): 0.15 µM; Enhanced Potency ([6]; 24 h): ~18,000; IC50 ([7]; LNCaP): 0.13 µM; Enhanced Potency [7]: ~25,000; IC50 ([8]; Jurkat): 0.17 µM; Enhanced Potency ([8]; Jurkat): ~14,000
